Laboratory results reported in patent US20140107100A1, “Benzoxazepines as Inhibitors of PI3K/mTOR and Methods of Their Use and Manufacture” (EXELIXIS, INC., priority 2010, published 2014).

biological target: mTOR/GbL/Raptor (mTORC1) (Homo sapiens, UniProt P42345); test: mTOR/GbL/Raptor (mTORC1) ELISA assay, phosphorylation of 4E-BP1; type: biochemical; settings: 0.2 nM mTORC1, 40 uM ATP, 50 nM NHis-tagged 4E-BP1, 120 minutes; read-out: IC50 in this assay (mTORC1 ELISA)
How it was run: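 Phospho-4E-BP1 was quantified by luminescent ELISA (anti-phospho-4E-BP1 IgG, HRP-tagged secondary) after capture of the His-tagged substrate on Ni-chelate plates.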

SMILES	IC50 [nM]
COc1cc(-c2cnc3sc(N)nc3c2)cc2c1OCCN(c1nc(CN(C)C)nc(C)c1C(C)C)C2 [Compound 157, 6-[4-{2-[(dimethylamino)methyl]-6-methyl-5-(1-methylethyl)pyrimidin-4-yl}-9-(methyloxy)-2,3,4,5-tetrahydro-1,4-benzoxazepin-7-yl][1,3]thiazolo[5,4-b]pyridin-2-amine]	100 to 500
Cc1nc2ncc(-c3cc(C)c4c(c3)CN(c3nc(CNCC(F)F)nc(C)c3C(C)C)CCO4)cc2[nH]1 [Compound 166, 2,2-difluoro-N-({4-methyl-5-(1-methylethyl)-6-[9-methyl-7-(2-methyl-1H-imidazo[4,5-b]pyridin-6-yl)-2,3-dihydro-1,4-benzoxazepin-4(5H)-yl]pyrimidin-2-yl}methyl)ethanamine]	≤ 100
Cc1cc(-c2cnc3nc[nH]c3c2)cc2c1OCCN(c1nc(CN(C)CC(F)F)nc(C)c1C(C)C)C2 [Compound 167, 2,2-difluoro-N-({4-[7-(1H-imidazo[4,5-b]pyridin-6-yl)-9-methyl-2,3-dihydro-1,4-benzoxazepin-4(5H)-yl]-6-methyl-5-(1-methylethyl)pyrimidin-2-yl}methyl)-N-methylethanamine]	100 to 500
Cc1cc(-c2nnc(N)s2)cc2c1OCCN(c1nc(CN(C)CC(F)F)nc(C)c1C(C)C)C2 [Compound 168, 5-{4-[2-{[(2,2-difluoroethyl)(methyl)amino]methyl}-6-methyl-5-(1-methylethyl)pyrimidin-4-yl]-9-methyl-2,3,4,5-tetrahydro-1,4-benzoxazepin-7-yl}-1,3,4-thiadiazol-2-amine]	≤ 100
Cc1cc(-c2nnc(N)s2)cc2c1OCCN(c1nc(CNCC(F)F)nc(C)c1C(C)C)C2 [Compound 169, 5-{4-[2-{[(2,2-difluoroethyl)amino]methyl}-6-methyl-5-(1-methylethyl)pyrimidin-4-yl]-9-methyl-2,3,4,5-tetrahydro-1,4-benzoxazepin-7-yl}-1,3,4-thiadiazol-2-amine]	≤ 100
CCN(Cc1nc(C)c(C(C)C)c(N2CCOc3c(C)cc(-c4nnc(N)s4)cc3C2)n1)CC(F)F [Compound 170, 5-{4-[2-{[(2,2-difluoroethyl)(ethyl)amino]methyl}-6-methyl-5-(1-methylethyl)pyrimidin-4-yl]-9-methyl-2,3,4,5-tetrahydro-1,4-benzoxazepin-7-yl}-1,3,4-thiadiazol-2-amine]	100 to 500
CCN(Cc1nc(C)c(C(C)C)c(N2CCOc3c(C)cc(-c4cnc5nc[nH]c5c4)cc3C2)n1)CC(F)F [Compound 171, N-ethyl-2,2-difluoro-N-({4-[7-(1H-imidazo[4,5-b]pyridin-6-yl)-9-methyl-2,3-dihydro-1,4-benzoxazepin-4(5H)-yl]-6-methyl-5-(1-methylethyl)pyrimidin-2-yl}methyl)ethanamine]	100 to 500
Cc1nc(C)c(C(C)C)c(N2CCOc3c(C)cc(-c4nnc(N)s4)cc3C2)n1 [Compound 172, 5-{4-[2,6-dimethyl-5-(1-methylethyl)pyrimidin-4-yl]-9-methyl-2,3,4,5-tetrahydro-1,4-benzoxazepin-7-yl}-1,3,4-thiadiazol-2-amine]	≤ 100
Cc1cc(-c2nnc(N)s2)cc2c1OCCN(c1ncnc(C)c1C(C)C)C2 [Compound 173, 5-{9-methyl-4-[6-methyl-5-(1-methylethyl)pyrimidin-4-yl]-2,3,4,5-tetrahydro-1,4-benzoxazepin-7-yl}-1,3,4-thiadiazol-2-amine]	≤ 100
Cc1ncc(C)c(N2CCOc3c(C)cc(-c4nnc(N)s4)cc3C2)n1 [Compound 174, 5-[4-(2,5-dimethylpyrimidin-4-yl)-9-methyl-2,3,4,5-tetrahydro-1,4-benzoxazepin-7-yl]-1,3,4-thiadiazol-2-amine]	≤ 100
Cc1ncc(C(C)C)c(N2CCOc3c(C)cc(-c4nnc(N)s4)cc3C2)n1 [Compound 175, 5-{9-methyl-4-[2-methyl-5-(1-methylethyl)pyrimidin-4-yl]-2,3,4,5-tetrahydro-1,4-benzoxazepin-7-yl}-1,3,4-thiadiazol-2-amine]	≤ 100
Cc1cc(-c2nnc(N)s2)cc2c1OCCN(c1ncnc(C)c1C)C2 [Compound 176, 5-[4-(5,6-dimethylpyrimidin-4-yl)-9-methyl-2,3,4,5-tetrahydro-1,4-benzoxazepin-7-yl]-1,3,4-thiadiazol-2-amine]	≤ 100
Cc1cc(-c2nnc(N)s2)cc2c1OCCN(c1ncncc1C(C)C)C2 [Compound 177, 5-{9-methyl-4-[5-(1-methylethyl)pyrimidin-4-yl]-2,3,4,5-tetrahydro-1,4-benzoxazepin-7-yl}-1,3,4-thiadiazol-2-amine]	≤ 100
Cc1cnc(N)nc1N1CCOc2c(C)cc(-c3nnc(N)s3)cc2C1 [Compound 178, 4-[7-(5-amino-1,3,4-thiadiazol-2-yl)-9-methyl-2,3-dihydro-1,4-benzoxazepin-4(5H)-yl]-5-methylpyrimidin-2-amine]	≤ 100
Cc1cc(-c2nnc(N)s2)cc2c1OCCN(c1nc(N)nc(C)c1C)C2 [Compound 179, 4-[7-(5-amino-1,3,4-thiadiazol-2-yl)-9-methyl-2,3-dihydro-1,4-benzoxazepin-4(5H)-yl]-5,6-dimethylpyrimidin-2-amine]	≤ 100
Cc1cc(-c2nnc(N)s2)cc2c1OCCN(c1nc(N)ncc1C(C)C)C2 [Compound 180, 4-[7-(5-amino-1,3,4-thiadiazol-2-yl)-9-methyl-2,3-dihydro-1,4-benzoxazepin-4(5H)-yl]-5-(1-methylethyl)pyrimidin-2-amine]	≤ 100
C=Cc1c(C)nc(N)nc1N1CCOc2c(C)cc(-c3nnc(N)s3)cc2C1 [Compound 181, 4-[7-(5-amino-1,3,4-thiadiazol-2-yl)-9-methyl-2,3-dihydro-1,4-benzoxazepin-4(5H)-yl]-5-ethenyl-6-methylpyrimidin-2-amine]	≤ 100

Now from value to compound:

IC50 [nM]	SMILES
≤ 100	COCCOc1nc(C)c(C(C)C)c(N2CCOc3c(C)cc(-c4cnc5sc(N)nc5c4)cc3C2)n1 [Compound 154, 6-{9-methyl-4-[6-methyl-5-(1-methylethyl)-2-{[2-(methyloxy)ethyl]oxy}pyrimidin-4-yl]-2,3,4,5-tetrahydro-1,4-benzoxazepin-7-yl}[1,3]thiazolo[5,4-b]pyridin-2-amine]
≤ 100	COCCc1nc(C)c(C(C)C)c(N2CCOc3c(C)cc(-c4cnc5sc(N)nc5c4)cc3C2)n1 [Compound 155, 6-(9-methyl-4-{6-methyl-5-(1-methylethyl)-2-[2-(methyloxy)ethyl]pyrimidin-4-yl}-2,3,4,5-tetrahydro-1,4-benzoxazepin-7-yl)[1,3]thiazolo[5,4-b]pyridin-2-amine]
≤ 100	Cc1cc(-c2cnc3sc(N)nc3c2)cc2c1OCCN(c1nc(CN(C)CCF)nc(C)c1C(C)C)C2 [Compound 156, 6-{4-[2-{[(2-fluoroethyl)(methyl)amino]methyl}-6-methyl-5-(1-methylethyl)pyrimidin-4-yl]-9-methyl-2,3,4,5-tetrahydro-1,4-benzoxazepin-7-yl}[1,3]thiazolo[5,4-b]pyridin-2-amine]
≤ 100	CCNCc1nc(C)c(C(C)C)c(N2CCOc3c(C)cc(-c4cnc5sc(N)nc5c4)cc3C2)n1 [Compound 158, 6-(4-{2-[(ethylamino)methyl]-6-methyl-5-(1-methylethyl)pyrimidin-4-yl}-9-methyl-2,3,4,5-tetrahydro-1,4-benzoxazepin-7-yl)[1,3]thiazolo[5,4-b]pyridin-2-amine]
≤ 100	CCN(CCF)Cc1nc(C)c(C(C)C)c(N2CCOc3c(C)cc(-c4cnc5sc(N)nc5c4)cc3C2)n1 [Compound 159, 6-{4-[2-{[ethyl(2-fluoroethyl)amino]methyl}-6-methyl-5-(1-methylethyl)pyrimidin-4-yl]-9-methyl-2,3,4,5-tetrahydro-1,4-benzoxazepin-7-yl}[1,3]thiazolo[5,4-b]pyridin-2-amine]
≤ 100	COCCc1nc(C)c(C(C)C)c(N2CCOc3c(C)cc(-c4cnc(Cl)c(NS(C)(=O)=O)c4)cc3C2)n1 [Compound 160, N-[2-chloro-5-(9-methyl-4-{6-methyl-5-(1-methylethyl)-2-[2-(methyloxy)ethyl]pyrimidin-4-yl}-2,3,4,5-tetrahydro-1,4-benzoxazepin-7-yl)pyridin-3-yl]methanesulfonamide]
≤ 100	Cc1cc(-c2cnc(Cl)c(NS(C)(=O)=O)c2)cc2c1OCCN(c1nc(CNCCF)nc(C)c1C(C)C)C2 [Compound 161, N-(2-chloro-5-{4-[2-{[(2-fluoroethyl)amino]methyl}-6-methyl-5-(1-methylethyl)pyrimidin-4-yl]-9-methyl-2,3,4,5-tetrahydro-1,4-benzoxazepin-7-yl}pyridin-3-yl)methanesulfonamide]
≤ 100	Cc1nc2cc(-c3cc(C)c4c(c3)CN(c3nc(N)nc(C)c3C(C)C)CCO4)cnc2[nH]1 [Compound 162, 4-methyl-5-(1-methylethyl)-6-[9-methyl-7-(2-methyl-3H-imidazo[4,5-b]pyridin-6-yl)-2,3-dihydro-1,4-benzoxazepin-4(5H)-yl]pyrimidin-2-amine]
≤ 100	Cc1cc(-c2cnc3nc[nH]c3c2)cc2c1OCCN(c1nc(N)nc(C)c1C(C)C)C2 [Compound 163, 4-[7-(1H-imidazo[4,5-b]pyridin-6-yl)-9-methyl-2,3-dihydro-1,4-benzoxazepin-4(5H)-yl]-6-methyl-5-(1-methylethyl)pyrimidin-2-amine]
≤ 100	Cc1cc(-c2cnc(Cl)c(NS(C)(=O)=O)c2)cc2c1OCCN(c1nc(CNCC(F)F)nc(C)c1C(C)C)C2 [Compound 164, N-(2-chloro-5-{4-[2-{[(2,2-difluoroethyl)amino]methyl}-6-methyl-5-(1-methylethyl)pyrimidin-4-yl]-9-methyl-2,3,4,5-tetrahydro-1,4-benzoxazepin-7-yl}pyridin-3-yl)methanesulfonamide]
≤ 100	Cc1cc(-c2cnc3nc[nH]c3c2)cc2c1OCCN(c1nc(CNCC(F)F)nc(C)c1C(C)C)C2 [Compound 165, 2,2-difluoro-N-({4-[7-(1H-imidazo[4,5-b]pyridin-6-yl)-9-methyl-2,3-dihydro-1,4-benzoxazepin-4(5H)-yl]-6-methyl-5-(1-methylethyl)pyrimidin-2-yl}methyl)ethanamine]
